Data on seven compounds can be found in ChEMBL document CHEMBL1201862, “PubChem BioAssay data set” (2004).

Test in all cases: inhibition of tumour cell growth, NCI panel, 48 h
In experiment [1] the test system is KM-20L2.
Experiment [2] deals with OVCAR-5.
The subject of experiment [3] is HL-60.
Experiment [4] deals with SR.
In experiment [5] the test system is NCI-H460.
The subject of experiment [6] is RPMI-8226.
For experiment [7], the system named is KM12.
The test system of experiment [8] is HCT-15.
Experiment [9] concerns SF-295.
In experiment [10] the test system is SNB-19.
Experiment [11] concerns OVCAR-4.
The test system of experiment [12] is M14.
Experiment [13] concerns ACHN.
For experiment [14], the system named is HCC 2998.
Experiment [15] concerns U-251.
Experiment [16] has as its system EKVX.
Experiment [17] has as its system T47D.
Experiment [18] deals with UACC-257.
Experiment [19] relates to NCI-H23.
For experiment [20], the system named is MDA-MB-231.

Structures are written as SMILES.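 Values below derive from 48-hour exposures of cells grown in 96-well plates, with endpoints linearly interpolated between the two concentrations bracketing the appropriate inhibition level. Abbreviation: GI50, concentration required for 50% inhibition of growth.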 Active and inactive are the calls of the source. No stated cut-off is given here; in the data, active = GI50 up to about 1.1 µM and inactive = higher. A value given as a limit tells only on which side of the number the result lay.

In the case of `NC(=O)c1ncn(C2OC(CO)C(O)C2O)c1O` (centres undefined), the GI50 in [1] is 34.8 µM (inactive); in experiment [2], 58.1 µM (inactive); in experiment [3], 50.2 µM (inactive); in experiment [4], 69 µM (inactive); in experiment [5] it was 53.7 µM (inactive); in [6] it was > 100 µM (inactive). Also, the GI50 in [7] was 46.6 µM (inactive); in experiment [8] it was 65.2 µM; in experiment [9], > 100 µM (inactive); in experiment [10], > 100 µM (inactive); in [11], > 100 µM (inactive); in experiment [12], > 100 µM (inactive). Moreover, the GI50 was > 100 µM (inactive) in experiment [13], 56.8 µM (inactive) in experiment [14], > 100 µM (inactive) in experiment [15] and > 100 µM (inactive) in experiment [16].

Consider `O=C1CCCC2=C(N1)C(=O)C=CC2=O`, for which the GI50 in [1] was > 100 µM (inactive); in experiment [17] it was 22 µM (inactive); in experiment [2], 33.4 µM (inactive); in experiment [18], 45.2 µM (inactive); in [3], 8.61 µM (inactive); in experiment [4], 24.4 µM (inactive). Further, the GI50 was 45.3 µM (inactive) in experiment [5]; 23.9 µM (inactive) in [6]; 25.6 µM (inactive) in experiment [7]; 42.2 µM in experiment [8]; 41.7 µM (inactive) in experiment [9]; 44.1 µM (inactive) in experiment [10]. The GI50 in [19] is 39.6 µM (inactive); in experiment [11], 45.7 µM (inactive); in experiment [12], 39.8 µM (inactive); in [13], 40.6 µM (inactive); in experiment [14], 60.8 µM (inactive); in experiment [15] it was 43.8 µM (inactive). Moreover, the GI50 in experiment [16] was 34.4 µM (inactive); in experiment [20], 16.7 µM (inactive).

As to `NC(CCCCN/C=C1/N=C(c2ccccc2)OC1=O)C(=O)O` (centres undefined), the GI50 in [1], in experiment [2], in experiment [18], in experiment [3], in experiment [4] and in experiment [5] was > 100 µM (inactive) throughout. Moreover, the GI50 in experiment [6] is > 100 µM (inactive); in experiment [8], over 100 µM; in experiment [9], > 100 µM (inactive); in experiment [10], > 100 µM (inactive); in experiment [19], > 100 µM (inactive); in experiment [11] it was > 100 µM (inactive). For the same compound, the GI50 in experiment [12], in experiment [13], in experiment [14], in [15] and in experiment [16] was > 100 µM (inactive) each time.

For `CCCCCCCCCCCCOC(=N)N1CCOCC1`, the GI50 in experiment [1] was 3.43 µM (inactive); in experiment [2] it was 14.9 µM (inactive); in [18], 9.35 µM (inactive); in experiment [3], 1.55 µM (inactive); in experiment [4] it was 1.56 µM (inactive); in experiment [5], 15 µM (inactive). In addition, the GI50 in [6] was 1.87 µM (inactive); in [7] it was 5.53 µM (inactive); in experiment [8], 4.08 µM; in [9], 17 µM (inactive); in [10], 18.5 µM (inactive); in experiment [19] it was 13.4 µM (inactive). Also, the GI50 in experiment [11] was 7.62 µM (inactive); in experiment [12], 3.95 µM (inactive); in experiment [13], 14.2 µM (inactive); in [14], 10.5 µM (inactive); in experiment [15], 9.46 µM (inactive); in experiment [16], 12.9 µM (inactive).

Consider `CCN(CC)C(=S)N/N=C(\C)c1ccccc1O`, for which the GI50 in [1] is 21.4 µM (inactive); in experiment [18] it was 27 µM (inactive); in [3], 22.6 µM (inactive); in experiment [4], 8.13 µM (inactive); in experiment [5] it was 4.84 µM (inactive); in [6] it was 18.5 µM (inactive). The GI50 in experiment [7] is 15.5 µM (inactive); in [8], 3.72 µM; in experiment [9], 15.5 µM (inactive); in experiment [10], 20.8 µM (inactive); in [19], 25 µM (inactive); in [11] it was > 100 µM (inactive). The GI50 in [12] is 17.5 µM (inactive); in experiment [13], 14.5 µM (inactive); in [14], 13.4 µM (inactive); in [15], 16.9 µM (inactive); in [16] it was 36.4 µM (inactive).

`Cn1cnc2[nH]c(=O)[nH]c(=S)c21`: the GI50 in experiment [1], in [2], in [18], in experiment [3], in [4] and in experiment [5] was > 100 µM (inactive) each time. In addition, the GI50 in [6] was > 100 µM (inactive); in experiment [7], > 100 µM (inactive); in experiment [8], over 100 µM; in [9], > 100 µM (inactive); in experiment [10] it was > 100 µM (inactive); in experiment [19], > 100 µM (inactive). For the same compound, the GI50 in experiment [11], in experiment [12], in experiment [13], in [14], in [15] and in experiment [16] was > 100 µM (inactive) each time.

Consider `CN(C)CCNC(=O)c1c2ccccc2cc2ccccc12`, for which the GI50 was 37.7 µM (inactive) in [1]; 50.9 µM (inactive) in [2]; 18.5 µM (inactive) in [18]; 25.4 µM (inactive) in experiment [3]; 0.473 µM (active) in experiment [4]; 18.1 µM (inactive) in experiment [5]. The GI50 in [6] was 17.5 µM (inactive); in experiment [7], 42.8 µM (inactive); in experiment [8] it was 36 µM; in experiment [9] it was 61.2 µM (inactive); in experiment [10], > 100 µM (inactive); in experiment [19] it was 41.4 µM (inactive). Also, the GI50 was 31 µM (inactive) in [11]; 16.7 µM (inactive) in experiment [12]; 32.4 µM (inactive) in [13]; 32.7 µM (inactive) in experiment [14]; 41.3 µM (inactive) in experiment [15]; > 100 µM (inactive) in experiment [16].
